According to patent US7915293B2, “Ubiquitin ligase inhibitors” (Rigel Pharmaceuticals, Inc., priority 2003, dated 2011):

The compounds below were run against E3 (His-APC11/APC2-"APC") (Homo sapiens, UniProt Q9NYG5+Q9UJX6) (assay: Plate-based E3 ligase assay (APC FLAG), auto-ubiquitination). Conditions: 2 concentrations tested.
Assay type: biochemical
Set-up: key: “+” indicates that the compound exibits inhibitory activity; “−” indicates that low or no inhibitory activity was observed
Description: E3 (His-APC11/APC2-“APC”) auto-ubiquitination was measured as described in U.S. patent application Ser. No. 09/826,312 (Publication No. US-2002-0042083-A1), which is incorporated herein in its entirety. Details of the protocol are described below. Activity in the presence of the compound was determined relative to a parallel control in which only DMSO was added. Values of the IC50 were typically determined using 6 or 8 different concentrations of the compound, although as few as 2 concentrations may be used to approximate the IC50 value.
Nickel-coated 96-well plates (Pierce 15242) were blocked for 1 hour with 100 μl of blocking buffer at room temperature. The plates were washed 4 times with 225 μl of 1×PBS and 80 μl of the reaction buffer were added that contained 100 ng/well of Flag-ubiquitin. To this, 10 μl of the test compound diluted in DMSO were added. After the test compound was added, 10 μl of E1 (human), E2 (Ubch5c), and APC in Protein Buffer was added to obtain a final concentration of 5 ng/well of E1, 20 ng/well of E2 and 100 ng/well of APC. The plate were shaken for 10 minutes and incubated at room temperature for 1 hour. After incubation, the plates were washed 4 times with 225 μl of 1×PBS and 100 μl/well of Antibody Mix were added to each well. The plates were incubate at room temperature for another hour after which they were washed 4 times with 225 μl of 1×PBS and 100 μl/well of Lumino substrate were added to each well. The luminescence was measured by using a BMG luminescence microplate reader.
To prepare the Blocking Buffer (1 liter; 1% Casein in 1×PBS), 10 grams of Casein (Hammersten Grade Casein from Gallard-Schlesinger Inc. #440203) were placed into 1 liter of 1×PBS, stirred on a hot plate and kept between 50-60° C. for an hour. The buffer was allowed to cool to room temperature and then filtered using a Buchner Funnel (Buchner filter funnel 83 mm 30310-109) and Whatman filter paper (Whatman Grade No. 1 Filter paper 28450-070). It was stored at 4° C. until used.
The reaction buffer consisted of 62.5 mM Tris pH 7.6 (Trizma Base—Sigma T-8524), 3 mM MgCl2 (Magnesium Chloride—Sigma M-2393), 1 mM DTT (Sigma D-9779), 2.5 mM ATP (Roche Boehringer Mann Corp. 635-316), 100 ng/well of Flag-ubiquitin, 0.1% BSA (Sigma A-7906), and 0.05% Tween-20 (Sigma P-7949).
The Protein Buffer consisted of 20 mM Tris pH 7.6, 10% glycerol (Sigma G-5516) and 1 mM DTT.
The antibody mix consisted of 0.25% BSA (Sigma A-7906) in 1×PBS, 1/50,000 anti-Flag (Sigma F-3165), 1/100,000 of anti-Mouse IgG-HRP (Jackson Immunoresearch #115-035-146).
The substrate mix consisted of SuperSignal Substrate from Pierce (catalog number 37070ZZ) and was prepared by mixing 100 ml of the peroxide solution, 100 ml of the enhancer solution and 100 ml of Milli-Q® water.

Chain of E3 (His-APC11/APC2-"APC") (Q9NYG5 whole entry): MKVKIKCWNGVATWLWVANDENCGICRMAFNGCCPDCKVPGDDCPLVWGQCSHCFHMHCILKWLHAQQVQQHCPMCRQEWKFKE
Chain of E3 (His-APC11/APC2-"APC") (Q9UJX6 whole entry): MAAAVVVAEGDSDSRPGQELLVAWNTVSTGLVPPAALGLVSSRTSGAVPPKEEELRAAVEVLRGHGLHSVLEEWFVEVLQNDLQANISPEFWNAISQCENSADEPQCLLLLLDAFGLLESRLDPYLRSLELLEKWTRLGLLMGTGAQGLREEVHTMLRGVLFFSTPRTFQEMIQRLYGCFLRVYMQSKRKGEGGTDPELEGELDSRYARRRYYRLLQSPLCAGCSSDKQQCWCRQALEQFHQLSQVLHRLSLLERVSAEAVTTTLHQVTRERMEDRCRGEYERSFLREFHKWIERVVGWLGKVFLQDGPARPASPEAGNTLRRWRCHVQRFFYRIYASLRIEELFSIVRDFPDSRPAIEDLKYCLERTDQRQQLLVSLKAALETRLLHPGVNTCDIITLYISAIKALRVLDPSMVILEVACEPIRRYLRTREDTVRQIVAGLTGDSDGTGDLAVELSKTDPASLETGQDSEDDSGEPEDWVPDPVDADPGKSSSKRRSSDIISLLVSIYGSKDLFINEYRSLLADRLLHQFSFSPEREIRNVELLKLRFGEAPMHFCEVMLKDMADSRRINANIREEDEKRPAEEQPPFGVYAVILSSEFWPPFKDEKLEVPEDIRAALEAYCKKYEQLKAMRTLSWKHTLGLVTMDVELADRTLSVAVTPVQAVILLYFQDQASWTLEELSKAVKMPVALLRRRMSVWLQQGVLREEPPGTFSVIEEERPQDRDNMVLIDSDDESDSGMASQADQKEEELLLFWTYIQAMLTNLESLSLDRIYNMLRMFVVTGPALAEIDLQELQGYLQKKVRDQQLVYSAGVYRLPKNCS

| SMILES | APC Flag (2 pt) |
| --- | --- |
| CN(c1cc(Cl)cc(Cl)c1)S(=O)(=O)c1cc(Cl)c(Oc2ccc([N+](=O)[O-])cc2Cl)c(Cl)c1 [Example 190, 3,5-dichloro-4-(2-chloro-4-nitrophenoxy)-N-(3,5-dichlorophenyl)-N-methylbenzene-sulfonamide] | − (2 pt) |
| CC(C)c1ccccc1NS(=O)(=O)c1cc(Cl)c(Oc2ccc([N+](=O)[O-])cc2Cl)c(Cl)c1 [Example 227, 3,5-dichloro-4-(2-chloro-4-nitrophenoxy)-N-(2-isopropylphenyl)benzenesulfonamide] | − (2 pt) |

The next lines start with the values.

| APC Flag (2 pt) | SMILES |
| --- | --- |
| − (2 pt) | CC(=O)c1cccc(NS(=O)(=O)c2cc(Cl)c(Oc3ccc([N+](=O)[O-])cc3Cl)c(Cl)c2)c1 [Example 186, N-(3-acetylphenyl)-3,5-dichloro-4-(2-chloro-4-nitrophenoxy)benzenesulfonamide] |
| − (2 pt) | O=S(=O)(Nc1cccc(Br)c1)c1ccc(Oc2ccc(F)cc2)cc1 [Example 187, N-(3-bromophenyl)-4-(4-fluorophenoxy) benzenesulfonamide] |
| − (2 pt) | Cc1c(Cl)cccc1NS(=O)(=O)c1ccc(Oc2ccc(F)cc2)cc1 [Example 188, N-(3-chloro-2-methylphenyl)-4-(4-fluoro-phenoxy)benzenesulfonamide] |
| − (2 pt) | O=S(=O)(Nc1ccc(F)c(Cl)c1)c1ccc(Oc2ccc(F)cc2)cc1 [Example 189, N-(3-chloro-4-fluorophenyl)-4-(4-fluoro-phenoxy)benzenesulfonamide] |
| − (2 pt) | Cc1c(Cl)cccc1NS(=O)(=O)c1ccc(Oc2ccc(Cl)cc2)cc1 [Example 194, N-(3-chloro-2-methylphenyl)-4-(4-chloro-phenoxy)benzenesulfonamide] |
| − (2 pt) | O=S(=O)(Nc1ccc(F)c(Cl)c1)c1ccc(Oc2ccc(Cl)cc2)cc1 [Example 195, N-(3-chloro-4-fluorophenyl)-4-(4-chloro-phenoxy)benzenesulfonamide] |
| − (2 pt) | O=S(=O)(Nc1cccc(Br)c1)c1ccc(Oc2ccc(Cl)cc2)cc1 [Example 196, N-(3-bromophenyl)-4-(4-chlorophenoxy) benzenesulfonamide] |

Same assay, conditions: 8 concentrations tested

| SMILES | APC Flag 8 pt |
| --- | --- |
| O=[N+]([O-])c1ccc(Oc2c(Cl)cc(S(=O)(=O)Nc3cc(F)cc(F)c3)cc2Cl)c(Cl)c1 [Example 177, 3,5-dichloro-4-(2-chloro-4-nitrophenoxy)-N-(3,5-difluorophenyl)benzenesulfonamide] | + |
| O=[N+]([O-])c1ccc(Oc2c(Cl)cc(S(=O)(=O)Nc3ccc(F)c(F)c3)cc2Cl)c(Cl)c1 [Example 197, 3,5-dichloro-4-(2-chloro-4-nitrophenoxy)-N-(3,4-difluorophenyl)benzenesulfonamide] | + |
| Cc1ccc(NS(=O)(=O)c2cc(Cl)c(Oc3ccc([N+](=O)[O-])cc3Cl)c(Cl)c2)cc1F [Example 198, 3,5-dichloro-4-(2-chloro-4-nitrophenoxy)-N-(3-fluoro-4-methylphenyl)benzene-sulfonamide] | + |
| N=C(Nc1ccc(Cl)cc1)NS(=O)(=O)c1cc(Cl)c(Oc2ccc([N+](=O)[O-])cc2Cl)c(Cl)c1 [Example 211, 3,5-dichloro-4-(2-chloro-4-nitrophenoxy)-N-[[(4-chlorophenyl)amino](imino)methyl] benzenesulfonamide] | + |
| N=C(NS(=O)(=O)c1cc(Cl)c(Oc2ccc([N+](=O)[O-])cc2Cl)c(Cl)c1)c1ccccc1 [Example 212, N-{[3,5-dichloro-4-(2-chloro-4-nitro-phenoxy)phenyl]sulfonyl}benzene-carboximidamide] | − |
| N=C(Nc1nc2ccccc2[nH]1)NS(=O)(=O)c1cc(Cl)c(Oc2ccc([N+](=O)[O-])cc2Cl)c(Cl)c1 [Example 225, N-[(1H-benzimidazol-2-ylamino)(imino)methyl]-3,5-dichloro-4-(2-chloro-4-nitro-phenoxy)benzenesulfonamide] | + |
| O=[N+]([O-])c1ccc(Oc2c(Cl)cc(S(=O)(=O)Nc3cc(Cl)cnc3Cl)cc2Cl)c(Cl)c1 [Example 233, 3,5-dichloro-4-(2-chloro-4-nitrophenoxy)-N-(2,5-dichloropyridin-3-yl)benzene-sulfonamide] | + |
| O=[N+]([O-])c1ccc(Oc2c(Cl)cc(S(=O)(=O)Nc3cccc(F)c3F)cc2Cl)c(Cl)c1 [Example 239, 3,5-dichloro-4-(2-chloro-4-nitrophenoxy)-N-(2,3-difluorophenyl)benzenesulfonamide] | + |
| Cc1ccc(S(=O)(=O)Nc2ccc(Oc3c([N+](=O)[O-])cc(C(F)(F)F)cc3[N+](=O)[O-])c(Cl)c2)cc1 [Example 247, N-{3-chloro-4-[2,6-dinitro-4-(trifluoro-methyl)phenoxy]phenyl}-4-methylbenzene-sulfonamide] | + |
| O=[N+]([O-])c1cc(C(F)(F)F)cc([N+](=O)[O-])c1Oc1ccc(NS(=O)(=O)c2ccc(Cl)cc2)cc1Cl [Example 248, 4-chloro-N-{3-chloro-4-[2,6-dinitro-4-(tri-fluoromethyl)phenoxy]phenyl}benzene-sulfonamide] | − |
| O=[N+]([O-])c1ccc(F)c(NS(=O)(=O)c2ccc(Oc3ccc([N+](=O)[O-])cc3C(F)(F)F)c(Cl)c2)c1 [Example 260, 3-chloro-N-(2-fluoro-5-nitrophenyl)-4-[4-nitro-2-(trifluoromethyl)phenoxy]benzene-sulfonamide] | + |
| CC(=O)N(C(C)=O)c1ccc(Oc2c(Cl)cc(S(=O)(=O)Nc3cccc(Cl)c3)cc2Cl)c(Cl)c1 [Example 280, N-acetyl-N-[3-chloro-4-(2,6-dichloro-4-{[(3-chlorophenyl)amino]sulfonyl}phenoxy)phenyl]acetamide] | + |
| O=[N+]([O-])c1ccc(Oc2c(Cl)cc(S(=O)(=O)Nc3cc(OC(F)(F)F)ccc3Br)cc2Cl)c(Cl)c1 [Example 293, N-(2-bromo-5-(trifluoromethoxy)phenyl)-3,5-dichloro-4-(2-chloro-4-nitrophenoxy)benzenesulfonamide] | + |

More lines, now with the values ahead:

| APC Flag 8 pt | SMILES |
| --- | --- |
| − | O=[N+]([O-])c1ccc(Oc2c(Cl)cc(S(=O)(=O)Nc3ccc(Cl)cc3)cc2Cl)c(Cl)c1 [Example 176, 3,5-dichloro-4-(2-chloro-4-nitrophenoxy)-N-(4-chlorophenyl)benzenesulfonamide] |
| + | O=[N+]([O-])c1ccc(Oc2c(Cl)cc(S(=O)(=O)Nc3cccc(Cl)c3Cl)cc2Cl)c(Cl)c1 [Example 178, 3,5-dichloro-4-(2-chloro-4-nitrophenoxy)-N-(2,3-dichlorophenyl)benzenesulfonamide] |
| − | N#Cc1c(Cl)cccc1Oc1ccc(S(=O)(=O)Nc2cccc(Br)c2)cc1 [Example 180, N-(3-bromophenyl)-4-(3-chloro-2-cyano-phenoxy)benzenesulfonamide] |
| − | Cc1c(Cl)cccc1NS(=O)(=O)c1ccc(Oc2cccc(Cl)c2C#N)cc1 [Example 181, 4-(3-chloro-2-cyanophenoxy)-N-(3-chloro-2-methylphenyl)benzenesulfonamide] |
| − | N#Cc1c(Cl)cccc1Oc1ccc(S(=O)(=O)Nc2ccc(F)c(Cl)c2)cc1 [Example 182, 4-(3-chloro-2-cyanophenoxy)-N-(3-chloro-4-fluorophenyl)benzenesulfonamide] |
| − | O=[N+]([O-])c1cccc(Cl)c1Oc1ccc(S(=O)(=O)Nc2cccc(Br)c2)cc1 [Example 183, N-(3-bromophenyl)-4-(2-chloro-6-nitro-phenoxy)benzenesulfonamide] |
| − | Cc1c(Cl)cccc1NS(=O)(=O)c1ccc(Oc2c(Cl)cccc2[N+](=O)[O-])cc1 [Example 184, N-(3-chloro-2-methylphenyl)-4-(2-chloro-6-nitrophenoxy)benzenesulfonamide] |
| − | O=[N+]([O-])c1cccc(Cl)c1Oc1ccc(S(=O)(=O)Nc2ccc(F)c(Cl)c2)cc1 [Example 185, N-(3-chloro-4-fluorophenyl)-4-(2-chloro-6-nitrophenoxy)benzenesulfonamide] |
